Experimental data reported in patent US7001587B2, “Measurement of protein synthesis rates in humans and experimental systems by use of isotopically labeled water” (The Regents of the University of California, priority 2001, dated 2006).
Where two headings read alike, the source gives them in different places. Values belong to the compound of their own block, whether it stands above or below them.

Columns and labels:
[1] = In vitro ^2H label exchange / label stability studies; type: physicochemical; conditions: acid-hydrolysis conditions used for proteins (6N HCl)
human subjects = assay: Tolerability of daily oral ^2H2O in human subjects; type: in vivo; conditions: human subjects (healthy and HIV/AIDS) drinking 50–100 ml daily for 10–12 weeks
rats = assay: Tolerability of 4% ^2H2O drinking water in rats; type: in vivo; conditions: rats given 4% ^2H2O as drinking water
[2] = tested on: humans and experimental animals; assay: Long-term maintenance of high body water ^2H2O enrichment, toxicity; type: in vivo; conditions: 1–5% of total body water labeled, weeks or months, >100 people and experimental animals
From the text: Relatively high body water enrichments of ^2H2O (e.g., 1–5% of the total body water is labeled) have been achieved using the techniques of the invention. […] This finding in a large number of human subjects (>100 people) is contrary to previous concerns about vestibular toxicities at high doses of ^2H2O. Applicants have discovered that as long as rapid changes in body water enrichment are prevented (e.g., by initial administration in small, divided doses), high body water enrichments of ^2H2O can be maintained with no toxicities. Previous dosing of ^2H2O in humans, for other purposes (e.g., measurement of fatty acid or cholesterol synthesis or gluconeogenesis) have typically used lower doses and achieved lower body water enrichment. The low expense of commercially available ^2H2O allows long-term maintenance of enrichments in the 1–5% range at relatively low expense (e.g., lower cost for 2 months labeling at 2% ^2H2O enrichment, and thus 7–8% enrichment in the alanine precursor pool (FIGS. 2A–B), than for 12 hours labeling of ^2H-leucine at 10% free leucine enrichment, and thus 7–8% enrichment in leucine precursor pool for that period).

[3] = rat, in vivo
From the text: The ^2H2O labeling protocol consisted of an initial intraperitoneal (ip) injection of 99.9% ^2H2O, to achieve ca. 2.5% body water enrichment (assuming total body water to be 60% of body weight) followed by administration of 4% ^2H2O in drinking water. For labeling of rats in utero, 4% drinking water was started while the male and female adult rats were housed together for mating (i.e. before pregnancy) and the 4% ^2H2O drinking water was continued through the pregnancy and post-delivery period.
The ^2H2O enrichment of body water was measured by a GC/MS technique that we have described elsewhere (Neese et al., Analytic Biochem 298(2):189–95, 2001). Briefly, the hydrogen atoms from water (10 μL) were chemically transferred to acetylene by reaction with calcium carbide in a sealed vial. Acetylene gas was then derivatized by injection into another sealed vial containing 0.5 ml Br2 (0.1 mM) dissolved in CCl4, followed by quenching of remaining Br2 with cyclohexene. The resulting tetrabromoethane was dissolved in CCl4 and was analyzed by GC/MS, using a DB-225 column (30 m, J&W, Folsom, Calif.) at 180° C., with methane chemical ionization (C.I.). The ions at m/z 265 and 266 were analyzed using selected ion monitoring. These ions represent the M0 and M1 mass isotopomers of the C2H2Br3^+ fragment (^79Br^79Br^81Br isotopologue). The enrichments of ^2H2O in water samples were calculated by comparison to standard curves generated by mixing 100% ^2H2O with unlabeled H2O in known proportions (Neese et al., Analytic Biochem 298(2):189–95, 2001).

[4] = cited from earlier work
bone collagen = assay: Bone collagen synthesis rate (ks) in ovariectomized rats by ^2H2O labeling; type: in vivo; conditions: ovariectomized female rats, pellet 200 μg
Experimental: The fractional synthesis or replacement rate (ks) of proteins or peptides may be determined by application of the continuous labeling, precursor-product formula: [formula] where A^∞ represents the asymptotic or plateau value of the amino acid I.E. (isotopic enrichment) possible under the labeling conditions present and AA(protein)t represents the measured protein-bound amino acid at time t.
Ovariectomy was performed in adult female rodents as described (9). After allowing 3 weeks for recovery from surgery, the rats received either estradiol by subcutaneous pellet (200 μg) or sham placement of pellet. ^2H2O labeling was initiated at the time of pellet placement and continued for 2 weeks, at which time the animals were sacrificed and bone was collected.
Rats were killed every 1–2 weeks during a 10-week period of ^2H2O administration. The rear left femur was collected and was dissected free of soft tissue. Bone marrow and trabecular bone were removed using a needle with sharp cutting surface (ref: Bone 2000). After washing 3 times with water, the bone was splintered and powdered under liquid N2 in a Spex mill and defatted with chloroform:methanol (1:1, v:v). After drying, the powdered bone was subjected to acid hydrolysis in 6N HCl (110° C., 24 hr). The free AA were dried under N2 gas and derivatized for analysis by gas chromatography/mass spectrometry (GC/MS). […]

loss of ^2H-label [1]: no loss of ^2H-label was observed
Compound: [2H]C(C)(N)C(=O)O (stereo not drawn) [^2H1-labeled alanine]

loss of ^2H-label [1]: no loss of ^2H-label was observed
Compound: [2H]C([2H])(N)C(=O)O [^2H2-labeled glycine]

Compound: [2H]O[2H] [^2H2O]
adverse effects or toxicities (human subjects): No adverse effects or toxicities were observed | growth and signs of toxicity (rats): grew normally and exhibited no signs of toxicity | toxicity at maintained body water enrichment [2]: without any evidence of toxicity | Body ^2H2O Enrichment (%) [3]: 2.6% | measured ^2H2O enrichment in maternal blood [3]: 2.4% | half-life ([4]; turnover of body water pool): 14400 to 20200 min

Compound: C[C@]12CC[C@@H]3c4ccc(O)cc4CC[C@H]3[C@@H]1CC[C@@H]2O [estrogen, estradiol]
ks of bone collagen (bone collagen; 2 weeks ^2H2O labeling): 0.008 day⁻¹ | decrease in ks of bone collagen (bone collagen; 2 weeks, compared to vehicle-implanted ovariectomized rats): 35–40%

Compound: ^2H-glucose
half-life ([4]; in vivo): 20 min

Compound: ^2H-leucine
half-life ([4]; in vivo): < 30 min
